Laboratory results from patent publication US20060258755A1, “Preparation of sevoflurane with negligible water content” (priority 2005, published 2006).

What was measured:
Type in all cases: physicochemical
[1] = Stability trial of sevoflurane dried over Type 3A molecular sieve, packaged in glass bottles or epoxy-lined drums; conditions: for decomposition / % sevoflurane by gas chromatography: dried to 0 ppm water, 30 days at 40° C. and 75% relative humidity; for % sevoflurane by gas chromatography: initial 99.99%
Protocol: (§1) Sevoflurane (99.99%, produced January 2005) was dried over Type 3A molecular sieve using a continuous flow bed apparatus to a water-composition of 0.0 wt % (or 0 ppm) as measured by Karl Fischer. 100 ml of sevoflurane was packaged into a Type III amber glass bottle and sealed for a 30-day stability trial at 40° C. and 75% relative humidity. At the end of this time, the sevoflurane was 99.99% as determined by gas chromatography.
as §1, with “water composition” for “water-composition”, “250” for “100”
Sevoflurane (99.99%, produced January 2005) was dried over Type 3A molecular sieve using a continuous flow bed apparatus to a water composition of 0.0 wt % (or 0 ppm) as measured by Karl Fischer. 28.1 kg of sevoflurane was packaged in a five-gallon epoxy-lined drum and sealed for a 30-day stability trial at 40° C. and 75% relative humidity. At the end of this time, the % sevoflurane was 99.99% as determined by gas chromatography.
Purified Sevoflurane was dried over Type 3A molecular sieve using a continuous flow bed apparatus to negligible or near-negligible water compositions as measured by Karl Fischer. The dried material was packaged into 100 mL or 250 mL Type III amber glass bottles or into 5 gal epoxy-lined drums and subsequently stored as part of a stability trial under controlled or ambient conditions.
The sevoflurane used in examples 8-11 was produced by the method described in pending U.S. patent application Ser. No. 11/281,293, filed Nov. 17, 2005, the disclosure of which is incorporated herein by reference.

[2] = Storage stability of sevoflurane stored with Type 3A molecular sieve in Type III glass
Text: Another sample of sevoflurane (40 g) was stored with 2 g of Type 3A molecular sieve (an alumino silicate that contains Al2O3, identified as a Lewis acid in the '176 patent) in July 2000. This sample was in a new Type III glass container for six months at ambient temperatures.
Starting in July 2000, 40 g of sevoflurane (Abbott Laboratories Lot # 35-621 -DK-03) was stored in the presence of 2 g of Type 3A molecular sieve for 20 months in a dried, new Type III amber glass bottle at room temperature. The initial water content was 218 ppm and was essentially zero after 16 hours of contact with the molecular sieve (as determined by Karl Fischer, a method known to those skilled in the art with a detection limit of about 1 ppm or less).
Starting in July 2000, a sample of sevoflurane (from the lot described in Example 1) was held at room temperature (25-27° C.) over Type 3A molecular sieve for two-and-a-half months in a dried, new Type III amber glass bottle.

[3] = Storage stability of sevoflurane in the presence of iron oxide (Fe2O3, a Lewis acid)
Protocol: A sample of sevoflurane containing 30 ppm of water and 0.05 g Fe2O3 (iron oxide) was placed in a new Type III amber glass bottle in July 2000 and sealed as previously described. […] This sample was sealed in September 2000 in a new Type III glass bottle as previously described and stored at 40° C. for four weeks.

[4] = Water saturation limit of sevoflurane; conditions: second sample of Example 4 (28 g)
Protocol: Currently available processes for the preparation of sevoflurane generally give a product containing dissolved water up to 0.12 to 0.14 wt %, or 1200 to 1400 ppm, the approximate water saturation limit of sevoflurane. […] This sample was sealed in September 2000 in a new Type III glass bottle as previously described and stored at 40° C. for four weeks.

[5] = Storage stability of sevoflurane in Type III glass bottle (gas chromatography, Karl Fischer)
Protocol: In one experiment initiated in August 2000, sevoflurane (Abbott Laboratories, Lot #61-339-DK, Expiration Date Aug. 1, 2001) was dried to 0 ppm water content using Type 3A molecular sieve. Drying was performed by mixing the sevoflurane with molecular sieves and then allowing these materials to stand together for several hours. The water content was determined by Karl Fischer analysis. A sample of the dried sevoflurane was placed in a new amber Type III glass bottle, which had been dried at 100° C. for 2 hours. The bottle was sealed with a black phenolic/urea resin cap and a polyseal liner of polyethylene resin and shrink-wrapped or wrapped with Teflon® tape and shrink-wrapped. The sample was then held at room temperature (25-27° C.) and at ambient relative humidity. […] One undried lot of sevoflurane from Abbott Laboratories (Lot #0 335 70 K, Expiration Date Apr. 1, 1997, stored in a Type III bottle) was analyzed in May and October 2000. This sevoflurane was 97 ppm H2O and 99.9916% sevoflurane by gas chromatography.

[6] = 5 gal epoxy-lined drum, Mfg. April 2005, initial water 6 ppm, 60 days, 40 C./75% RH
[7] = 5 gal epoxy-lined drum, Mfg. April 2005, initial water 10 ppm, 9 months, Ambient
[8] = 5 gal epoxy-lined drum, Mfg. February 2005, initial water 0 ppm, 12 months, 40 C./75% RH
[9] = 5 gal epoxy-lined drum, Mfg. February 2005, initial water 0 ppm, 12 months, Ambient
[10] = 5 gal epoxy-lined drum, Mfg. January 2005, initial water 0 ppm, 6 months, 40 C./75% RH
[11] = 5 gal epoxy-lined drum, Mfg. January 2005, initial water 0 ppm, 90 days, Ambient
[12] = 100 mL Type III amber glass bottle, Mfg. February 2005, initial water 0 ppm, 9 months, 25 C./60% RH
[13] = 100 mL Type III amber glass bottle, Mfg. February 2005, initial water 0 ppm, 60 days, 40 C./75% RH
[14] = 250 mL Type III amber glass bottle, Mfg. April 2005, initial water 5 ppm, 6 months, 25 C./60% RH
[15] = 250 mL Type III amber glass bottle, Mfg. April 2005, initial water 5 ppm, 90 days, 40 C./75% RH
[16] = 250 mL Type III amber glass bottle, Mfg. February 2005, initial water 0 ppm, 9 months, 25 C./60% RH
[17] = 250 mL Type III amber glass bottle, Mfg. February 2005, initial water 0 ppm, 60 days, 40 C./75% RH
[18] = 250 mL Type III amber glass bottle, Mfg. January 2005, initial water 0 ppm, 12 months, 25 C./60% RH
[19] = 28.1 kg in five-gallon epoxy-lined drum
[20] = 100 ml in Type III amber glass bottle
[21] = 250 ml in Type III amber glass bottle
[22] = 40 g with 2 g Type 3A molecular sieve, new Type III glass container, six months at ambient temperatures
[23] = lot of Example 1 over Type 3A molecular sieve, dried, new Type III amber glass bottle, room temperature (25-27° C.), two-and-a-half months
[24] = 28 g saturated with water (1235 ppm), 0.07 g Fe2O3, new Type III glass bottle, 40° C. for four weeks
[25] = 30 ppm water, 0.05 g Fe2O3, new Type III amber glass bottle, four weeks at 40° C.
[26] = undried Abbott Lot #0 335 70 K, 97 ppm H2O, Type III bottle, ambient temperature for about five years

Final Comp. [1, 6]: 99.998%
Result (decomposition) [1, 6]: No
Final Comp. [1, 7]: 99.998%
Result (decomposition) [1, 7]: No
Final Comp. [1, 8]: 99.98%
Result (decomposition) [1, 8]: No
Final Comp. [1, 9]: 99.98%
Result (decomposition) [1, 9]: No
Final Comp. [1, 10]: 99.98%
Result (decomposition) [1, 10]: No
Final Comp. [1, 11]: 99.99%
Result (decomposition) [1, 11]: No
Final Comp. [1, 12]: 99.98%
Result (decomposition) [1, 12]: No
Final Comp. [1, 13]: 99.99%
Result (decomposition) [1, 13]: No
Final Comp. [1, 14]: 99.997%
Result (decomposition) [1, 14]: No
Final Comp. [1, 15]: 99.997%
Result (decomposition) [1, 15]: No
Final Comp. [1, 16]: 99.98%
Result (decomposition) [1, 16]: No
Final Comp. [1, 17]: 99.98%
Result (decomposition) [1, 17]: No
Final Comp. [1, 18]: 99.99%
Result (decomposition) [1, 18]: No
decomposition [1, 19]: no decomposition
% sevoflurane by gas chromatography [1, 19]: 99.99%
decomposition [1, 20]: no decomposition
% sevoflurane by gas chromatography [1, 20]: 99.99%
decomposition [1, 21]: no decomposition
% sevoflurane by gas chromatography [1, 21]: 99.99%
decomposition ([2]; 40 g Abbott Lot # 35-621 -DK-03 with 2 g Type 3A molecular sieve, dried, new Type III amber glass bottle, room temperature, 20 months): no evidence of any decomposition
% sevoflurane by gas chromatography ([2]; 40 g Abbott Lot # 35-621 -DK-03 with 2 g Type 3A molecular sieve, dried, new Type III amber glass bottle, room temperature, 20 months, initial water 218 ppm, essentially zero after 16 hours): 99.997%
% sevoflurane by gas chromatography [2, 22]: greater than 99.99%
decomposition [2, 22]: No decomposition
% sevoflurane by gas chromatography [2, 23]: greater than 99.99%
decomposition [2, 23]: no decomposition
decomposition [3, 24]: no decomposition
purity by gas chromatography [3, 24]: 99.97%
% (CF3)2CHOCH2OCH(CF3)2 decomposition product by gas chromatographic analyses [3, 25]: 6.33%
% (CF3)2CHOH decomposition product by gas chromatographic analyses [3, 25]: 0.49%
% sevoflurane by gas chromatographic analyses [3, 25]: 90.7%
water content of sevoflurane saturated with water [4]: 1235 ppm
% sevoflurane by gas chromatography ([5]; Abbott Lot #61-339-DK dried to 0 ppm water with Type 3A molecular sieve, new amber Type III glass bottle, room temperature (25-27° C.), ambient relative humidity, four weeks): 99.998%
water (Karl Fischer analysis) at end of stability run ([5]; Abbott Lot #61-339-DK dried to 0 ppm water, new amber Type III glass bottle, room temperature (25-27° C.), ambient relative humidity, four weeks): 68 ppm
decomposition ([5]; Abbott Lot #61-339-DK dried to 0 ppm water, new amber Type III glass bottle, room temperature (25-27° C.), four weeks): no decomposition
% sevoflurane by gas chromatography [5, 26]: 99.9916%
decomposition [5, 26]: without decomposition
SMILES: FCOC(C(F)(F)F)C(F)(F)F [sevoflurane, 1,1,1,3,3,3-hexafluoroisopropyl fluoromethyl ether]
